Source: US7713994B2 (Wyeth LLC, priority 2005, dated 2010)
Values joined by “and” are separate entries in the source; they are usually repeats but may differ in a detail not shown here. Equal values may be shown once. Read-outs that look alike come from different tables or passages of the source.

How the values were obtained:
[1] = target: T1, cyclin D1/cdk 4 enzyme (Homo sapiens, UniProt P11802); experiment: CDK4 ELISA kinase assay (phospho-Rb ser 795 detection); assay type: biochemical
T1 construct: made in house; host or cells: Sf9 insect cells, recombinant baculovirus
Method in brief: (§1)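 Partially purified Sf9-expressed cyclin D1/CDK4, cyclin E/CDK2 or cyclin B/CDK1 phosphorylated plate-bound GST-Rb C-terminal fragment with 200 μM ATP at 30° C for 1 h.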

[2] = target: T2, cyclin E/CDK2 enzyme (Homo sapiens, UniProt P24941); experiment: CDK2 ELISA kinase assay (phospho-Rb ser 795 detection); assay type: biochemical
T2 construct: made in house; host or cells: Sf9 insect cells, recombinant baculovirus
Method in brief: as §1

[3] = target: T3, cyclin B/CDK1 enzyme (Homo sapiens, UniProt P06493); experiment: CDK1 ELISA kinase assay (phospho-Rb ser 795 detection); assay type: biochemical
T3 construct: purchased New England BioLabs; host or cells: Sf9 insect cells, recombinant baculovirus
Method in brief: as §1

[4] = test system: BT474; experiment: Cytotoxicity assay (SRB), BT474; assay type: cell-based; conditions: Homo sapiens, BT-474, 144 h, read-out: In Vitro Cellular Activity IC50 BT474
Method in brief: (§2)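 Percentage survival is derived from SRB absorbance (540 nm) versus untreated cells. Exposures were 3 days, except 6 days for BT474, at 37 °C and 7% CO2.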

[5] = test system: HCT-116; experiment: Cytotoxicity assay (SRB), HCT-116; assay type: cell-based; conditions: Homo sapiens, HCT-116, 72 h, read-out: In Vitro Cellular Activity IC50 HCT116
Method in brief: as §2

[6] = test system: LoVo; experiment: Cytotoxicity assay (SRB), LoVo; assay type: cell-based; conditions: Homo sapiens, LoVo, 72 h, read-out: In Vitro Cellular Activity IC50 LOVO
Method in brief: as §2

[7] = test system: MCF-7; experiment: Cytotoxicity assay (SRB), MCF-7; assay type: cell-based; conditions: Homo sapiens, MCF7, 72 h, read-out: In Vitro Cellular Activity IC50 MCF-7
Method in brief: as §2

[8] = I.V. and P.O. Dosing in Mice; assay type: in vivo; conditions: for AUC(0-inf) / bioavailability: mouse, in vivo; for bioavailability: po 50 mg/kg vs i.v. 2 mg/kg
[9] = dose i.v. 2 mg/kg, second value, (methocel/tween)
[10] = iv, 2 mg/kg, dose i.v. 2 mg/kg, read-out: aucinf obs (i.v.)
[11] = po, 50 mg/kg, dose po 50 mg/kg, read-out: aucinf obs (po)
[12] = In Vitro Enzyme Assay, cyclin D1/cdk 4, read-out: CDK4 IC50
[13] = In Vitro Enzyme Assay, cyclin E/CDK2, read-out: CDK2 IC50
[14] = In Vitro Enzyme Assay, cyclin B/CDK1, read-out: CDK1 IC50

T1 sequence (P11802 whole entry, species assumed): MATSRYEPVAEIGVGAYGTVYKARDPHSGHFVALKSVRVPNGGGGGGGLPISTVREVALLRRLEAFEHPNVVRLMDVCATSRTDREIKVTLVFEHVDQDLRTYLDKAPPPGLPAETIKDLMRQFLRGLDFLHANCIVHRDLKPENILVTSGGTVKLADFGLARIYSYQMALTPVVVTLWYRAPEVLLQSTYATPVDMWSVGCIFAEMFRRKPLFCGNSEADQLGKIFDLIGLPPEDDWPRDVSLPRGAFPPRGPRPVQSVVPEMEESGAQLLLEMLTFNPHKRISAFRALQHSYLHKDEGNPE
T1 sequence (P24385 whole entry partner, species assumed): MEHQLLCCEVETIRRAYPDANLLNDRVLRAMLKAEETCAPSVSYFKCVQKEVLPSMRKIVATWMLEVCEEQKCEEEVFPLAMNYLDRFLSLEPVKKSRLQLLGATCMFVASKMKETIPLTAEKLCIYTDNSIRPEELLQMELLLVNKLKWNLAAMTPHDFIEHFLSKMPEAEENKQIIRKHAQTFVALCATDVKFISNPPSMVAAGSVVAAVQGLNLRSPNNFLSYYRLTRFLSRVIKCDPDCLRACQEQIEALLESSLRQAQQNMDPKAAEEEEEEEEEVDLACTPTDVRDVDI
T3 sequence (P06493 whole entry): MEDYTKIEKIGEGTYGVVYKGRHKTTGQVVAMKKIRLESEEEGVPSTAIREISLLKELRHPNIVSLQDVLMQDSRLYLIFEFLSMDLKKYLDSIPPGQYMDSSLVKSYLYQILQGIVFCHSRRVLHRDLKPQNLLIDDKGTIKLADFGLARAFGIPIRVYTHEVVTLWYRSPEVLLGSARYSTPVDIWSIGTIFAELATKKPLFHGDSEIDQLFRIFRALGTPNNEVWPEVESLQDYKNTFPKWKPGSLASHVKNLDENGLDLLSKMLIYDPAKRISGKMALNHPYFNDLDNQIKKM
T3 sequence (P14635 whole entry partner): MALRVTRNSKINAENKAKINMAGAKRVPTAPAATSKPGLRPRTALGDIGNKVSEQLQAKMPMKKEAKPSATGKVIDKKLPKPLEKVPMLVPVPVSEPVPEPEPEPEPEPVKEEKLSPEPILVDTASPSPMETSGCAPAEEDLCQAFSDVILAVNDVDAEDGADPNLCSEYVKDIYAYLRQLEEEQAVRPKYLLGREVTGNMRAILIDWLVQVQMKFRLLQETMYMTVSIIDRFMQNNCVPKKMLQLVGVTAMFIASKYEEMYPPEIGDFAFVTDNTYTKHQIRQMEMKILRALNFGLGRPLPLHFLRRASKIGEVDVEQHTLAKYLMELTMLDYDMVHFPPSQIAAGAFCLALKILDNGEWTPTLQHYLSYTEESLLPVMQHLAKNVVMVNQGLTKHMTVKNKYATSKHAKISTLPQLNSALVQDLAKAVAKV

Row | Cl_obs ([8]; dose i.v. 2 mg/kg) | Vss_obs ([8]; dose i.v. 2 mg/kg) | HL_Lambda_z ([8]; dose po 50 mg/kg) | AUC(0-inf) [8, 10] | AUC(0-inf) [8, 11] | bioavailability ([8]; po, 50 mg/kg) | IC50 [1, 12] | IC50 [2, 13] | IC50 [3, 14] | melting point | Structure (SMILES) | IC50 ([4]; BT474 cells, 6 days, SRB) | IC50 ([5]; HCT116 cells, 3 days, SRB) | IC50 ([6]; LoVo cells, 3 days, SRB) | IC50 ([7]; MCF-7 cells, 3 days, SRB) | also measured
1 | 0.18 L/h/kg | 0.2 L/kg | 1.8 h | 11 µg·h/mL | 17.2 µg·h/mL | 6.3% | – | – | – | – | CCCOc1cnc(CNC=C2C(=O)NC(=O)c3ccc(I)cc32)cc1O [Example 364, 4-{[(4-Hydroxy-5-propoxy-pyridin-2-ylmethyl)-amino]-methylene}-6-iodo-4H-isoquinoline-1,3-dione] | – | – | – | – | IC50 ([1]; In Vitro Enzyme Assays, 200 μM ATP, read-out: CDK4 IC50): 0.03 µM; IC50 ([2]; In Vitro Enzyme Assays, read-out: CDK2 IC50): 1.6 µM; IC50 ([3]; In Vitro Enzyme Assays, read-out: CDK1 IC50): 25.3 µM; IC50 ([4]; BT474 cells, SRB, 6 days): 0.34 µM; IC50 ([5]; HCT116 cells, SRB, three days): 0.73 µM; IC50 ([6]; LoVo cells, SRB, three days): 0.52 µM; IC50 ([7]; MCF-7 cells, SRB, three days): 0.88 µM; Cl_obs [8, 9]: 0.126 L/h/kg; Vss_obs [8, 9]: 0.1 L/kg; HL_Lambda_z ([8]; dose po 50 mg/kg, second value, (methocel/tween)): 2.4 h; AUC(0-inf) ([8]; iv, 2 mg/kg, dose i.v. 2 mg/kg, second value, (methocel/tween), read-out: aucinf obs (i.v.)): 15.8 µg·h/mL; AUC(0-inf) ([8]; po, 50 mg/kg, dose po 50 mg/kg, second value, (methocel/tween), read-out: aucinf obs (po)): 5.35 µg·h/mL; bioavailability ([8]; po, 50 mg/kg, second value, (methocel/tween)): 1.4%
2 | 0.84 L/h/kg | 0.5 L/kg | 0.5 h | 2.36 µg·h/mL | 0.039 µg·h/mL | 0.07% | 0.27 µM | > 50 µM and 41.5 µM | 29.6 µM | – | O=C1NC(=O)c2ccc(I)cc2/C1=C/NCc1ccn(-c2ccccc2)c(=O)c1 [Example 517, (4Z)-6-Iodo-4-({[(2-oxo-1-phenyl-1,2-dihydropyridin-4-yl)methyl]amino}methylene)isoquinoline-1,3(2H,4H)-dione] | 0.09 µM | 0.25 µM | 0.17 µM | 0.79 µM | –
3 | 0.72 L/h/kg | 0.4 L/kg | 3.4 h | 2.75 µg·h/mL | 12 µg·h/mL | 17% | 0.06 µM | 2.6 µM | 11.6 µM | – | O=C1NC(=O)c2ccc(I)cc2/C1=C/NCc1ccn(-c2ccoc2)c(=O)c1 [Example 525, (4Z)-4-[({[1-(3-Furyl)-2-oxo-1,2-dihydropyridin-4-yl]methyl}amino)methylene]-6-iodoisoquinoline-1,3(2H,4H)-dione] | 0.14 µM | 0.71 µM | 0.45 µM | 0.71 µM | –
4 | 8.4 L/h/kg | 4.1 L/kg | 1.9 h | 0.238 µg·h/mL | 1.24 µg·h/mL | 21% | 0.02 µM | 4 µM | 13.1 µM | – | CC(C)(C)c1ccc2c(c1)/C(=C/NCc1ccc(-c3ccoc3)c(O)c1)C(=O)NC2=O [Example 535, 6-tert-Butyl-4-[(4-furan-3-yl-3-hydroxy-benzylamino)-methylene]-4H-isoquinoline-1,3. -dione] | 0.51 µM | 0.86 µM | 0.63 µM | 2 µM | –
5 | 0.3 L/h/kg | 0.2 L/kg | 7.1 h | 6.63 µg·h/mL | 1.04 µg·h/mL | 0.63% | – | 1.2 µM | – | 263 to 266 °C (dec.) | CCCOc1cnc(CN/C=C2\C(=O)NC(=O)c3ccc(C4CCCC4)cc32)cc1O [Example 538, 6-Cyclopentyl-4-{[(4-hydroxy-5-propoxy-pyridin-2-ylmethyl)-amino]-methylene}-4H-isoquinoline-1,3-dione] | 0.06 µM | 0.15 µM | 0.07 µM | 0.3 µM | –

Continued, molecule first:

Row | Structure (SMILES) | Cl_obs ([8]; dose i.v. 2 mg/kg) | Vss_obs ([8]; dose i.v. 2 mg/kg) | HL_Lambda_z ([8]; dose po 50 mg/kg) | AUC(0-inf) [8, 10] | AUC(0-inf) [8, 11] | bioavailability ([8]; po, 50 mg/kg) | IC50 [1, 12] | IC50 [2, 13] | IC50 [3, 14] | melting point | IC50 ([4]; BT474 cells, 6 days, SRB) | IC50 ([5]; HCT116 cells, 3 days, SRB) | IC50 ([6]; LoVo cells, 3 days, SRB) | IC50 ([7]; MCF-7 cells, 3 days, SRB) | also measured
6 | CCCOc1cnc(CN/C=C2\C(=O)NC(=O)c3ccc(C(C)(C)C)cc32)cc1O [Example 530, 6-tert-Butyl-4-{[(4-hydroxy-5-propoxy-pyridin-2-ylmethyl)-amino]-methylene}-4H-isoquinoline-1,3-dione] | 0.9 L/h/kg | 0.2 L/kg | 5.3 h | 2.24 µg·h/mL | 7.2 µg·h/mL | 13% | – | 0.96 µM | – | 162 to 178 °C (dec.) | 0.24 µM | 0.43 µM | 0.28 µM | 0.7 µM | –
7 | CC(C)(C)c1ccc2c(c1)/C(=C/NCc1cc(O)c(-c3ccccc3)cn1)C(=O)NC2=O [Example 531, 6-tert-Butyl-4-{[(4-hydroxy-5-phenyl-pyridin-2-ylmethyl)-amino]-methylene}-4H-isoquinoline-1,3-dione] | 1.38 L/h/kg | 0.9 L/kg | 5.2 h | 1.45 µg·h/mL | 0.879 µg·h/mL | 2.5% | – | 2.6 µM | 16.3 µM | 195 to 218 °C (dec.) | 0.04 µM | 0.15 µM | 0.1 µM | 0.7 µM | –
8 | O=C1NC(=O)c2ccc(I)cc2/C1=C/NCc1ccn(-c2ccsc2)c(=O)c1 [Example 539, (4Z)-6-Iodo-4-[({[2-oxo-1-(3-thienyl)-1,2-dihydropyridin-4-yl]methyl}amino)methylene]isoquinoline-1,3(2H,4H)-dione] | 1.26 L/h/kg | 0.3 L/kg | 0.8 h | 1.56 µg·h/mL | 0.044 µg·h/mL | 0.12% | 0.29 µM | 41.5 µM | > 50 µM | – | – | – | – | – | IC50 [4]: 0.33 µM; IC50 [5]: 0.34 µM; IC50 [6]: 0.16 µM; IC50 [7]: 0.24 µM
